Data on 10 molecules can be found in ChEMBL document CHEMBL1201862, “PubChem BioAssay data set” (2004).

Structures are written as SMILES.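 Method: 48-hour compound exposure of cells in 96-well plates, five concentrations, linear interpolation of endpoints. Here, GI50 denotes the concentration required for 50% inhibition of growth.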 The source made the active and inactive calls. Rule as the data show it: active = GI50 up to about 1.1 µM and inactive = higher.

Common to all, as to experiment: NCI-60 cell line screen, 48 h
In assay [1] the test system is HCT-116.
Assay [2] concerns MOLT-4.
Assay [3] has as its system U-251.
For assay [4], the system named is IGROV-1.
The subject of assay [5] is RXF 393.
The subject of assay [6] is SW-620.
Assay [7] relates to OVCAR-4.
Assay [8] deals with MDA-N.
In assay [9] the test system is SK-MEL-5.
Assay [10] deals with Malme-3M.
In assay [11] the test system is SF-539.
Assay [12] concerns MDA-MB-231.
In assay [13] the test system is K562.
Assay [14] relates to A498.
Assay [15] deals with SK-OV-3.
In assay [16] the test system is SF-268.
Assay [17] relates to M14.
The test system of assay [18] is MCF7.
Assay [19] concerns LOX IMVI.
Assay [20] has as its system T47D.

In the case of `Cc1ccc(-c2nc(-c3nccc4ccccc34)oc2-c2ccccc2)cc1`, the GI50 was 20.2 µM (inactive) in assay [1]; 25.2 µM (inactive) in [2]; 72.9 µM (inactive) in assay [3]; > 100 µM (inactive) in [4]; 33.4 µM (inactive) in [5]; 88.3 µM (inactive) in assay [6]. Further, the GI50 was > 100 µM (inactive) in assay [7]; 38.7 µM (inactive) in assay [8]; 28.1 µM (inactive) in assay [9]; 96.4 µM (inactive) in [10]; 46 µM (inactive) in [11]; > 100 µM (inactive) in assay [12]. For the same molecule, the GI50 was 55.1 µM (inactive) in [13]; 30.5 µM (inactive) in assay [14]; 68.9 µM (inactive) in assay [15]; 73.5 µM (inactive) in assay [16]; 24.9 µM (inactive) in assay [17]; 27.9 µM (inactive) in assay [18]. Further, the values for the GI50 in [19] and in [20] were 20.3 µM (inactive) and 68.2 µM (inactive), respectively.
With `Cc1ccc(N(C=O)c2c([N+](=O)[O-])cc([N+](=O)[O-])c3c2=[N+]([O-])CN=3)cc1`, the GI50 in [1] is 24.8 µM (inactive); in assay [2], 23.9 µM (inactive); in assay [3] it was 28.4 µM (inactive); in assay [4], 38.8 µM (inactive); in assay [5], 20.7 µM (inactive); in assay [6], 45.4 µM (inactive). Besides, the GI50 in assay [7] is 30.9 µM (inactive); in assay [8], 27.5 µM (inactive); in assay [9] it was 13.5 µM (inactive); in assay [10], 20.3 µM (inactive); in assay [11], 32 µM (inactive); in assay [12] it was 18.5 µM (inactive). Further, the GI50 in assay [13] is 27.3 µM (inactive); in [14], 39.6 µM (inactive); in [15] it was > 100 µM (inactive); in assay [16], 36 µM (inactive); in [17] it was 20.8 µM (inactive); in assay [18], 21.2 µM (inactive). In addition, the values for the GI50 in assay [19] and in assay [20] were 21.9 µM (inactive) and 17.5 µM (inactive), respectively.
On to `O=C(CSc1nc2ccc(Cl)cc2c(=O)n1-c1ccccc1)N/N=C1\C(=O)Nc2ccc(F)cc21`, for which the GI50 in [1] is 2.02 µM (inactive); in [2] it was 2.88 µM (inactive); in [3] it was 1.74 µM (inactive); in [4], 2.17 µM (inactive); in assay [5], 1.76 µM (inactive); in assay [6] it was 2.33 µM (inactive). Further, the GI50 in [7] was 2.16 µM (inactive); in assay [8], 2.67 µM (inactive); in [9] it was 3.13 µM (inactive); in assay [10], 3.57 µM (inactive); in assay [11] it was 2.86 µM (inactive); in assay [12], 2.76 µM (inactive). The GI50 in assay [13] was 3.72 µM (inactive); in assay [14] it was 2.38 µM (inactive); in [15], 8.34 µM (inactive); in assay [16] it was 2.82 µM (inactive); in assay [17] it was 3.21 µM (inactive); in assay [18], 2.1 µM (inactive). Moreover, the GI50 was 1.78 µM (inactive) in assay [19] and 2.07 µM (inactive) in [20].
On to `O=c1[nH]cnc2c1ncn2C1SC(CO)C(O)C1O` (configuration not stated), for which the GI50 in [1], in assay [2], in [3], in assay [4], in [5] and in [6] was > 100 µM (inactive) each time. Also, the GI50 in assay [7], in assay [8], in [9], in [10], in assay [11] and in [12] was > 100 µM (inactive) each time. Moreover, the GI50 in assay [13], in assay [14], in [15], in assay [16], in assay [17] and in [18] was > 100 µM (inactive) throughout. Also, the GI50 in assay [19] and in [20] was > 100 µM (inactive) each time.
`CC(C)C1CC(CO)(CNc2nc(N)nc(Cl)c2/C=N\O)C1` (configuration not stated): the GI50 is 12.6 µM (inactive) in assay [1]; 10.3 µM (inactive) in [2]; 14.5 µM (inactive) in [3]; 15.7 µM (inactive) in assay [4]; 18.8 µM (inactive) in assay [5]; 22.5 µM (inactive) in [6]. Further, the GI50 was 2.35 µM (inactive) in [7]; 11.3 µM (inactive) in assay [8]; 0.71 µM (active) in [9]; 3.22 µM (inactive) in [10]; 16.8 µM (inactive) in assay [11]; 12.6 µM (inactive) in assay [12]. Besides, the GI50 in assay [13] is 0.0843 µM (active); in assay [14], 12.3 µM (inactive); in [15], 10.3 µM (inactive); in assay [16], 22.4 µM (inactive); in [17] it was 13.1 µM (inactive); in assay [18], 0.687 µM (active). Moreover, the GI50 in [19] was 0.339 µM (active); in assay [20], 1.25 µM (inactive).
Regarding `COC(=O)CCC(=O)c1ccc2c(c1)CC1(C2)Cc2ccc(C(=O)CCC(=O)OC)cc2C1`, the GI50 in assay [1] was > 100 µM (inactive); in assay [2] it was 52 µM (inactive); in [3], 36.4 µM (inactive); in [4] it was > 100 µM (inactive); in assay [5], > 100 µM (inactive); in [7] it was 32.7 µM (inactive). For the same molecule, the GI50 is 73.1 µM (inactive) in assay [8]; 17.3 µM (inactive) in [9]; > 100 µM (inactive) in [10]; 67.5 µM (inactive) in assay [11]; 60.1 µM (inactive) in assay [12]; 29.9 µM (inactive) in [13]. Besides, the GI50 is 45 µM (inactive) in assay [14]; 67 µM (inactive) in [15]; 66.5 µM (inactive) in assay [17]; 44.1 µM (inactive) in assay [18]; > 100 µM (inactive) in assay [19]; 56 µM (inactive) in assay [20].
As for `COC(=O)c1cc(-c2c[nH]cc2C(=O)OCc2ccccc2)cn1S(=O)(=O)c1ccc(C)cc1`, the GI50 was > 100 µM (inactive) in assay [1]; > 100 µM (inactive) in assay [2]; > 10 µM (inactive) in assay [3]; > 100 µM (inactive) in assay [4]; > 100 µM (inactive) in assay [5]; > 100 µM (inactive) in [7]. The GI50 in [8] was > 100 µM (inactive); in assay [9], 4.16 µM (inactive); in assay [10] it was > 100 µM (inactive); in [11], > 100 µM (inactive); in assay [12], > 100 µM (inactive); in assay [13], 7.5 µM (inactive). The GI50 in assay [14] was > 100 µM (inactive); in assay [15], > 100 µM (inactive); in [16], > 100 µM (inactive); in [17] it was > 100 µM (inactive); in assay [18], 22.3 µM (inactive); in [19] it was 22.4 µM (inactive). Besides, the GI50 in assay [20] is 4.71 µM (inactive).
With `O=[As]O`, the GI50 in assay [1] was > 93.3 µM (inactive); in assay [2] it was > 56.8 µM (inactive); in [3] it was 23.2 µM (inactive); in assay [4] it was 28 µM (inactive); in assay [5] it was > 32.9 µM (inactive); in assay [6], > 64.1 µM (inactive). Moreover, the GI50 in assay [7] was > 91.6 µM (inactive); in [8], > 100 µM (inactive); in assay [9], 32.4 µM (inactive); in assay [10], 25.3 µM (inactive); in assay [11] it was 22.8 µM (inactive); in [12], > 100 µM (inactive). The GI50 was 37.7 µM (inactive) in assay [13]; > 74.6 µM (inactive) in assay [14]; > 100 µM (inactive) in assay [15]; > 47.1 µM (inactive) in [16]; > 50.5 µM (inactive) in assay [17]; 28.6 µM (inactive) in assay [18]. In addition, the GI50 in [19] is > 47.9 µM (inactive); in [20], > 100 µM (inactive).
Take `COc1ccc(/C=C2\CN(C)CC3=C2OC(N)=C(C#N)C3c2ccc(OC)cc2)cc1` (configuration not stated): the GI50 in [1] is 24.3 µM (inactive); in [2] it was 5.81 µM (inactive); in assay [3], 38 µM (inactive); in assay [4], 15.9 µM (inactive); in assay [5] it was 20.7 µM (inactive); in [6], > 94.2 µM (inactive). Besides, the GI50 in assay [7] was 21.6 µM (inactive); in assay [8], 21.8 µM (inactive); in assay [9], > 62.1 µM (inactive); in assay [10], 14.3 µM (inactive); in [11], > 100 µM (inactive); in assay [12] it was 42.4 µM (inactive). Moreover, the GI50 was 33.6 µM (inactive) in assay [13]; 35.4 µM (inactive) in assay [14]; 5.64 µM (inactive) in [15]; 48.6 µM (inactive) in [16]; 97.1 µM (inactive) in assay [17]; 19.5 µM (inactive) in assay [18]. Also, the results for the GI50 in assay [19] and in [20] were 42.7 µM (inactive) and 13.6 µM (inactive), respectively.
Take `CCc1ccc(/C=C\c2cc(OC)c(OC)c(OC)c2)cc1`: the GI50 in [1] is 0.0107 µM (active); in [2], 0.043 µM (active); in [3] it was 0.0102 µM (active); in assay [4], 0.0493 µM (active); in assay [5], 0.00908 µM (active); in [6] it was 0.00897 µM (active). Moreover, the GI50 in assay [7] was 0.617 µM (active); in [8] it was 0.00168 µM (active); in assay [9], 0.0181 µM (active); in assay [10], 0.124 µM (active); in [11], 0.0101 µM (active); in assay [12], 0.144 µM (active). The GI50 is 0.00845 µM (active) in assay [13]; 0.014 µM (active) in assay [14]; 0.013 µM (active) in assay [15]; 0.149 µM (active) in assay [16]; 0.0502 µM (active) in assay [17]; 0.0375 µM (active) in assay [18]. Also, the GI50 in [19] is 0.0132 µM (active); in [20], 0.17 µM (active).
